{
  "source": "paper PMC5125695",
  "about": "“Antiviral Efficacy of Verdinexor In Vivo in Two Animal Models of Influenza A Virus Infection” (PLoS ONE, 2016)",
  "key": {"A/California/04/09 [1]": {"test_system": "A/California/04/09", "assay_type": "in vivo, ferrets"}, "A/California/04/09 [2]": {"test_system": "A/California/04/09", "parameters": "species or system ferrets", "conditions": "in vivo"}, "A/California/04/09 [3]": {"test_system": "A/California/04/09", "parameters": "species or system ferrets", "conditions": "in vivo", "remark": "listed apart in the source"}, "A/California/04/09 [4]": {"test_system": "A/California/04/09", "parameters": "species or system ferrets", "conditions": "in vivo", "remark": "listed apart in the source"}, "[5]": {"conditions": "preliminary results, phase I and II studies; cited from earlier work"}, "[6]": {"conditions": "in vivo"}, "[7]": {"conditions": "mice, 20 mg/kg at day 1 and 3; data not shown"}, "in vivo": {"experiment": "in vivo", "conditions": "male, po, 5 mg/kg"}, "[8]": {"test_system": "various influenza A and B virus strains", "conditions": "cited from earlier work"}, "[9]": {"conditions": "human, in vivo; cited from earlier work"}, "A/California/04/09-MA": {"test_system": "A/California/04/09-MA", "conditions": "cited from earlier work"}},
  "note": "Like-named read-outs stand apart in the source and are kept apart here.",
  "data": [
    {"compound": "CCOC(=O)C1=C[C@@H](OC(CC)CC)[C@H](NC(C)=O)[C@@H](N)C1", "note": "[oseltamivir, reference compound]", "values": [
      {"measurement": "IFN-γ expression in nasal exudates at day 2 and 4 pi", "setting": "A/California/04/09 [1]; in vivo", "value": "trend toward reduced IFN-γ expression"},
      {"measurement": "IL-12p40 expression in nasal exudates at day 2 pi", "setting": "A/California/04/09 [1]; in vivo", "value": "reduced IL-12p40 expression"},
      {"measurement": "TNF-α expression in nasal exudates at day 2 pi", "setting": "A/California/04/09 [1]; in vivo", "value": "reduced TNF-α expression"},
      {"measurement": "Infiltrating leukocytes in nasal washes at day 2 pi", "setting": "A/California/04/09 [2]", "value": "Lower numbers of infiltrating leukocytes"},
      {"measurement": "Influenza-associated lung pathology and inflammation", "setting": "A/California/04/09 [3]", "value": "limited reduction in pathology"},
      {"measurement": "Lung score of the representative animal (range 0–4)", "setting": "A/California/04/09 [3]", "value": 3},
      {"measurement": "Lung virus titers at day 4 pi", "setting": "A/California/04/09 [4]", "value": "considerably (p≤0.001) reduced lung virus titers"}
    ]},
    {"compound": "O=C(/C=C\\n1cnc(-c2cc(C(F)(F)F)cc(C(F)(F)F)c2)n1)NNc1cnccn1", "note": "[selinexor]", "values": [
      {"measurement": "Anti-cancer activity in human patients", "setting": "[5]", "value": "evidence of anti-cancer activity"},
      {"measurement": "Oral exposure in human patients", "setting": "[5]", "value": "good oral exposure"}
    ]},
    {"compound": "O=C(/C=C\\n1cnc(-c2cc(C(F)(F)F)cc(C(F)(F)F)c2)n1)NNc1ccccn1", "note": "[verdinexor]", "values": [
      {"measurement": "IFN-γ expression in nasal exudates at day 2 and 4 pi", "setting": "A/California/04/09 [1]; […], not statistically significant", "value": "trend toward reduced IFN-γ expression"},
      {"measurement": "IL-12p40 expression in nasal exudates at day 2 pi", "setting": "A/California/04/09 [1]; in vivo, 10 mg/kg", "value": "reduced IL-12p40 expression"},
      {"measurement": "IL-12p40 expression in nasal exudates at day 2 pi", "setting": "A/California/04/09 [1]; in vivo, 25 mg/kg", "value": "reduced IL-12p40 expression"},
      {"measurement": "TNF-α expression in nasal exudates at day 2 pi", "setting": "A/California/04/09 [1]; in vivo, 25 mg/kg", "value": "reduced TNF-α expression"},
      {"measurement": "Clearance from the plasma", "setting": "[6]", "value": "more rapidly cleared from the plasma compared to mice"},
      {"measurement": "Oral bioavailability", "setting": "[6]; po", "value": "orally bioavailable"},
      {"measurement": "Efficacy and tolerability of the treatment regimen", "setting": "[7]", "value": "most efficacious yet well tolerated"},
      {"measurement": "AUC(0-inf)", "setting": "in vivo", "value": 3510, "unit": "ng·h/mL"},
      {"measurement": "AUC(0-t)", "setting": "in vivo", "value": 3510, "unit": "ng·h/mL"},
      {"measurement": "Cmax", "setting": "in vivo", "value": 1490, "unit": "ng/mL"},
      {"measurement": "Tmax", "setting": "in vivo", "value": 0.361, "unit": "h"},
      {"measurement": "half-life", "setting": "in vivo", "value": 1.84, "unit": "h"},
      {"measurement": "Infiltrating leukocytes in nasal washes at day 2 pi", "setting": "A/California/04/09 [2]", "value": "Lower numbers of infiltrating leukocytes"},
      {"measurement": "Infiltrating leukocytes in nasal washes at day 4 pi", "setting": "A/California/04/09 [2]; 10 mg/kg", "value": "significant (p≤0.05) reduction"},
      {"measurement": "Infiltrating leukocytes in nasal washes at day 4 pi", "setting": "A/California/04/09 [2]; 25 mg/kg", "value": "significant (p≤0.05) reduction"},
      {"measurement": "Influenza-associated lung pathology and inflammation", "setting": "A/California/04/09 [3]; 10 mg/kg", "value": "significant amelioration"},
      {"measurement": "Lung score of the representative animal (range 0–4)", "setting": "A/California/04/09 [3]; 10 mg/kg", "value": 2},
      {"measurement": "Influenza-associated lung pathology and inflammation", "setting": "A/California/04/09 [3]; 15 mg/kg", "value": "limited reduction in pathology"},
      {"measurement": "Lung score of the representative animal (range 0–4)", "setting": "A/California/04/09 [3]; 15 mg/kg", "value": 2},
      {"measurement": "Influenza-associated lung pathology and inflammation", "setting": "A/California/04/09 [3]; 25 mg/kg", "value": "significant amelioration"},
      {"measurement": "Lung score of the representative animal (range 0–4)", "setting": "A/California/04/09 [3]; 25 mg/kg", "value": 2},
      {"measurement": "Lung virus titers at day 4 pi", "setting": "A/California/04/09 [4]; 10 mg/kg", "value": "considerably (p≤0.001) reduced lung virus titers"},
      {"measurement": "Lung virus titers at day 4 pi", "setting": "A/California/04/09 [4]; 15 mg/kg", "value": "considerably (p≤0.001) reduced lung virus titers"},
      {"measurement": "Lung virus titers at day 4 pi", "setting": "A/California/04/09 [4]; 25 mg/kg", "value": "considerably (p≤0.001) reduced lung virus titers"},
      {"measurement": "Replication of various influenza A and B virus strains", "setting": "[8]", "value": "effective to inhibit the replication"},
      {"measurement": "Safety and tolerability in a phase I clinical trial", "setting": "[9]", "value": "safe and well-tolerated"},
      {"measurement": "Virus burden and inflammatory cytokines expression in lungs", "setting": "A/California/04/09-MA; mice infected with A/California/04/09-MA", "value": "efficacious in limiting virus burden and inflammatory cytokines expression"},
      {"measurement": "Lung pathology and mortality upon lethal virus infection", "setting": "A/California/04/09-MA; mice, oral verdinexor", "value": "reduced lung pathology and mortality"}
    ]}
  ]
}
